Where two headings read alike, the source gives them in different places.
Key:
[1] = EP 484,281 and Eur. J. Immunol., 17, 1359 (1987); cited from earlier work

| Substance | effect of combination (retroviruses; combined with AZT, ddl, Saquinavir, Nevirapin, Ritonavir and/or ribavirin) | effect of combination (retroviruses; combined with Indinavir) | immunosuppressing nature [1] |
| --- | --- | --- | --- |
| [(R)-2-(N,N-Dimethylamino)ethylthio-Sar]^3 -[4'-hydroxy-MeLeu]^4 -cyclosporin A [Example 1] | synergistic effect | additive effect |  |
| [4'-hydroxy-MeLeu]^4 -cyclosporin A |  |  | not immunosuppressing |

From patent publication US5994299A, “Cyclosporin compounds, their preparation and the pharmaceutical compositions which contain them” (Rhone-Poulenc Rorer, S.A., priority 1996, dated 1999)
